Read-outs that look alike come from different tables or passages of the source.

Experiment [1] relates to KBM5-T315I (human chronic myelogenous leukemia). Put plainly: MTT cancer cell growth inhibition. In kind it is cell-based. Particulars: MTT, 72 hours incubation, KBM5-T315I cells; read-out: GI50 KBM5-T315I. An outline of the steps: (§1)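 Using a 72 h MTT format, triplicate wells of 1500 cells received compound concentrations from 10^−5 to 10^−10 M. Formazan was read at 570 nm after DMSO dissolution, and GI50 was derived from viability.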

The subject of experiment [2] is Huh-7 (human hepatoma cells). Put plainly: MTT cancer cell growth inhibition. The format is cell-based. As to conditions: MTT, 72 hours incubation, Huh-7 cells; read-out: GI50 Huh-7. An outline of the steps:
as §1

The test system of experiment [3] is MDA-MB-231 (breast cancer cells). Put plainly: MTT cancer cell growth inhibition. In kind it is cell-based. Particulars: read-out: GI50 MDA-MB-231; MTT, 72 hours incubation, MDA-MB-231 cells. An outline of the steps: as §1
Experiment [4] relates to HT1080 (human fibrosarcoma cells). Put plainly: MTT cancer cell growth inhibition. The format is cell-based. Particulars: MTT, 72 hours incubation, read-out: GI50 HT1. A digest of the protocol:
as §1

Experiment [5] relates to Hela (human cervical cancer cells). Put plainly: MTT cancer cell growth inhibition. Particulars: MTT, 72 hours incubation, read-out: GI50 Hela. The format is cell-based. An outline of the steps: as §1
For experiment [6], the system named is PANC-1 (Pac-1, human pancreatic cancer cells). Put plainly: MTT cancer cell growth inhibition. The format is cell-based. Particulars: MTT, 72 hours incubation, read-out: GI50 PAN. A digest of the protocol: as §1
Experiment [7] deals with SGC-7901 (human gastric cancer cells). Put plainly: MTT cancer cell growth inhibition. The format is cell-based. As to conditions: MTT, 72 hours incubation, SGC-7901 cells; read-out: GI50 SGC-7901. A digest of the protocol: as §1
Experiment [8] relates to MCF-7 (human breast cancer cells). Put plainly: MTT cancer cell growth inhibition. The format is cell-based. Particulars: 72 hours incubation, read-out: GI50 MCF. An outline of the steps: as §1
Experiment [9] concerns HCC827 (human non-small cell lung cancer cells). The experiment can be described thus: MTT cancer cell growth inhibition. As to conditions: MTT, 72 hours incubation, HCC827 cells; read-out: GI50 HCC827. In kind it is cell-based. A digest of the protocol:
as §1

The subject of experiment [10] is MOLT-4 (human acute lymphoblastic leukemia cells). Put plainly: MTT cancer cell growth inhibition. The format is cell-based. As to conditions: MTT, 72 hours incubation, read-out: GI50 Mol. A digest of the protocol: as §1
The subject of experiment [11] is Bel-7402 (human hepatoma cells). Put plainly: MTT cancer cell growth inhibition. In kind it is cell-based. Particulars: MTT, 72 hours incubation, Bel-7402 cells; read-out: GI50 Bel-7402. A digest of the protocol: as §1
In experiment [12] the test system is U937 (human leukemia cells). The experiment can be described thus: MTT cancer cell growth inhibition. The format is cell-based. As to conditions: MTT, 72 hours incubation, read-out: GI50 U93. An outline of the steps:
as §1

Experiment [13] relates to KBM-5 (human chronic myelogenous leukemia). The experiment can be described thus: MTT cancer cell growth inhibition. The format is cell-based. As to conditions: MTT, 72 hours incubation, KBM-5 cells; read-out: GI50 KBM-5. A digest of the protocol: as §1
Experiment [14] relates to N-87 (human gastric cancer cells). Put plainly: MTT cancer cell growth inhibition. In kind it is cell-based. As to conditions: MTT, 72 hours incubation, N-87 cells; read-out: GI50 N-87. An outline of the steps: as §1
Experiment [15] relates to DU145 (human prostate cancer cells). Put plainly: MTT cancer cell growth inhibition. In kind it is cell-based. Particulars: MTT, 72 hours incubation, read-out: GI50 Du1. An outline of the steps:
as §1

The test system of experiment [16] is H1975 (non-small cell lung adenocarcinoma). The experiment can be described thus: MTT cancer cell growth inhibition. Particulars: MTT, 72 hours incubation, H1975 cells; read-out: GI50 H1975. The format is cell-based. A digest of the protocol: as §1
Experiment [17] relates to A549 (human lung cancer cells). Put plainly: MTT cancer cell growth inhibition. In kind it is cell-based. Particulars: MTT, 72 hours incubation, read-out: GI50 A54. A digest of the protocol:
as §1

The subject of experiment [18] is lncap (prostate cancer cells). Put plainly: MTT cancer cell growth inhibition. Particulars: MTT, 72 hours incubation, read-out: GI50 lnca. The format is cell-based. An outline of the steps: as §1
Experiment [19] concerns K562 (human leukemia cells). Put plainly: MTT cancer cell growth inhibition. The format is cell-based. Particulars: MTT, 72 hours incubation, K562 cells; read-out: GI50 K562. A digest of the protocol:
as §1

In experiment [20] the test system is BGC-823 (human gastric cancer cells). Put plainly: MTT cancer cell growth inhibition. In kind it is cell-based. Particulars: MTT, 72 hours incubation, read-out: GI50 BG. A digest of the protocol:
as §1

In experiment [21] the target is HDAC2 (Homo sapiens, UniProt Q92769). The experiment can be described thus: HDAC biochemical activity measurement (fluorescent substrate deacetylation). Particulars: 37° C. 30 minutes.
Sequence of HDAC2 (Q92769 whole entry, species assumed): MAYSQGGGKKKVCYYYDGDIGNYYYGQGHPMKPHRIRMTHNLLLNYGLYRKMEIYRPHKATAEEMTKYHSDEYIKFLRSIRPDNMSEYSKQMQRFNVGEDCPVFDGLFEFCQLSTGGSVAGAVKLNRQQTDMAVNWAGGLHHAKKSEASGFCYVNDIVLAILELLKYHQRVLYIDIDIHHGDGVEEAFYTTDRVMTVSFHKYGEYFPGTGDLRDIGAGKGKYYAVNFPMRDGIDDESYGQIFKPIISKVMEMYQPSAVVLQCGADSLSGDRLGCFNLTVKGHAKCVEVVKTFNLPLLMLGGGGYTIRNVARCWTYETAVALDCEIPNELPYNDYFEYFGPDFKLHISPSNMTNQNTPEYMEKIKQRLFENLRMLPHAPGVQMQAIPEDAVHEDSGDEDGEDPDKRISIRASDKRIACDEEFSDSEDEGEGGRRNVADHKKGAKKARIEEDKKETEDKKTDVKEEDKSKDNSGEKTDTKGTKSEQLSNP
Experiment [22] addresses T1, HDAC11 (Homo sapiens, UniProt Q96DB2).
T1 sequence (Q96DB2 1-347): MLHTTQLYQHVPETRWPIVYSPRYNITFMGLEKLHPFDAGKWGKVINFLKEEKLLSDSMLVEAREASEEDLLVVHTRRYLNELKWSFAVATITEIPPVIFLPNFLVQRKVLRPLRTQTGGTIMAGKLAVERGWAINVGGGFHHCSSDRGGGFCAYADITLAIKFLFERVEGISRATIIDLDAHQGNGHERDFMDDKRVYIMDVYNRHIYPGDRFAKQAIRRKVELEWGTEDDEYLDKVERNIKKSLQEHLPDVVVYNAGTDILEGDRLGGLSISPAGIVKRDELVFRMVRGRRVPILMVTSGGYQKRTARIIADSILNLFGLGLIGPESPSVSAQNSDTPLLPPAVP
Described as above. As to conditions: read-out: IC50 HDAC11; HDAC11; 37° C. 30 minutes.

Experiment [23] has as its target T2, HDAC7 (Homo sapiens, UniProt Q8WUI4).
T2 sequence (Q8WUI4 1-952): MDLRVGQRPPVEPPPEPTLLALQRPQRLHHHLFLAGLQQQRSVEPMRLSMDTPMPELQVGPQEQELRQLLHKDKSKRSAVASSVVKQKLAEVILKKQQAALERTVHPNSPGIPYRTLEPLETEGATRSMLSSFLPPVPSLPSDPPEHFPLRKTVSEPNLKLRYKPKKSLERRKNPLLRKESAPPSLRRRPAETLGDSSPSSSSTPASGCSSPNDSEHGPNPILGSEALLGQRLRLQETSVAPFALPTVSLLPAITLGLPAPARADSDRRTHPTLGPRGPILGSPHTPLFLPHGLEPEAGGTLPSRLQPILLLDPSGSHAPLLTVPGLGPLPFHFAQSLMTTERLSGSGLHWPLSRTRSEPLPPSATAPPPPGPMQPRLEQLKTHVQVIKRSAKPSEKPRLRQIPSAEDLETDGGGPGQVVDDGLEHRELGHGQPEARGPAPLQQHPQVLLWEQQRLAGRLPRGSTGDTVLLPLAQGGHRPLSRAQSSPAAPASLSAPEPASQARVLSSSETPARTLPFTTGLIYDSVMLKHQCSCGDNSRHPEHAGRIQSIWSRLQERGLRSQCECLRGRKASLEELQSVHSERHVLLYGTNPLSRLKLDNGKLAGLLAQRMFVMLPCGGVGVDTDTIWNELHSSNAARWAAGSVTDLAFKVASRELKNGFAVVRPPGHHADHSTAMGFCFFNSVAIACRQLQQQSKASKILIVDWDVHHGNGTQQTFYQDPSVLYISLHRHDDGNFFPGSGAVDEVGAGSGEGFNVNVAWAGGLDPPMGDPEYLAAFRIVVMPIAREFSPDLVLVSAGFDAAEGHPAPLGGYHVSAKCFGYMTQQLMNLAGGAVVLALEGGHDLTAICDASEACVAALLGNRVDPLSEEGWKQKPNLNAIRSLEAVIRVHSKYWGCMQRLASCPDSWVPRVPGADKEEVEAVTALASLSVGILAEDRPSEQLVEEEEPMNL
The experiment is described as above. As to conditions: HDAC7; 37° C. 30 minutes.

The target in experiment [24] is T3, HDAC8 (Homo sapiens, UniProt Q9BY41).
T3 sequence (Q9BY41 1-377): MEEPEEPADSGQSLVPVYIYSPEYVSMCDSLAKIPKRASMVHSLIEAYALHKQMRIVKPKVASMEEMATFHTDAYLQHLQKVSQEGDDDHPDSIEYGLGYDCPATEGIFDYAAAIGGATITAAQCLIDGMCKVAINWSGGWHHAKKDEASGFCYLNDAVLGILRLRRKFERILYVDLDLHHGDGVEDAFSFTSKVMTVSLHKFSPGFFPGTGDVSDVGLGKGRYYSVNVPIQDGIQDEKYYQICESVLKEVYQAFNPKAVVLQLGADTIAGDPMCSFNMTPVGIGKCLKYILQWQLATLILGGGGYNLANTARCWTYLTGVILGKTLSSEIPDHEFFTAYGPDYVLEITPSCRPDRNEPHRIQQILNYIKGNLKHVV
Described as above. As to conditions: 37° C. 30 minutes.
Experimental: The chemical activity of the compound is determined according to the degree of deacetylation inhibition of the HDAC enzyme. This experiment measured the degree of deacetylation related to tumor proliferation and metastasis of HDAC1, HDAC2, HDAC3, HDAC8, HDAC11 five subtypes HDAC enzymes. After the substrate containing an acetylated lysine side chain and HDAC enzyme are labeled with a fluorescent label, the fluorescent substrate is de acetyl. The fluorescent labeled substrate is cleaved by the enzyme, and the fluorescent substance is released, which generates 460 nm emission light under the excitation of 360 nm light.
HDAC substrate was diluted with reaction buffer to 200M (reaction concentration of 20M), the HDAC enzyme was diluted to the appropriate concentration, then added different concentrations of the test compounds and acted at 37° C. 30 minutes, and then added the same volume of 2-times concentration substrate developing solution (developer), incubated at room temperature for 15 minutes.

For experiment [25], the target named is HDAC3 (Homo sapiens, UniProt O15379). The description is as above. As to conditions: read-out: IC50 HDAC3; HDAC3; 37° C. 30 minutes.
Sequence of HDAC3 (O15379 whole entry, species assumed): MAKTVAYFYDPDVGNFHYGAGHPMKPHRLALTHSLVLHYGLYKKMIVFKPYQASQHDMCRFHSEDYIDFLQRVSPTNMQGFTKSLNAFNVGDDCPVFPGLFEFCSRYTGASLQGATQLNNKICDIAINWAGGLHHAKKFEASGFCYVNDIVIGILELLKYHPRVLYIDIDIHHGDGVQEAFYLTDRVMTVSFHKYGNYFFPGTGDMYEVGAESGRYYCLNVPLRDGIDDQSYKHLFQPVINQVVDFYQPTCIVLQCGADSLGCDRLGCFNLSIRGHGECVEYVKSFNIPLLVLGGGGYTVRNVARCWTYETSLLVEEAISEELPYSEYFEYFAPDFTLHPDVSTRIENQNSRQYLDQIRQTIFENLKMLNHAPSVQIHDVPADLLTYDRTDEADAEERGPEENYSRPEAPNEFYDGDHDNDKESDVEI
Sequence of HDAC3 (Q9Y618 395-489 partner limits assumed, species assumed): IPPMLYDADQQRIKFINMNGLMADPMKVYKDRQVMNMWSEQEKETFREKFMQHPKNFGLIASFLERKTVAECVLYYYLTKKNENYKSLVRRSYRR
In experiment [26] the target is HDAC1 (Homo sapiens, UniProt Q13547). The description is as above.
Sequence of HDAC1 (Q13547 whole entry, species assumed): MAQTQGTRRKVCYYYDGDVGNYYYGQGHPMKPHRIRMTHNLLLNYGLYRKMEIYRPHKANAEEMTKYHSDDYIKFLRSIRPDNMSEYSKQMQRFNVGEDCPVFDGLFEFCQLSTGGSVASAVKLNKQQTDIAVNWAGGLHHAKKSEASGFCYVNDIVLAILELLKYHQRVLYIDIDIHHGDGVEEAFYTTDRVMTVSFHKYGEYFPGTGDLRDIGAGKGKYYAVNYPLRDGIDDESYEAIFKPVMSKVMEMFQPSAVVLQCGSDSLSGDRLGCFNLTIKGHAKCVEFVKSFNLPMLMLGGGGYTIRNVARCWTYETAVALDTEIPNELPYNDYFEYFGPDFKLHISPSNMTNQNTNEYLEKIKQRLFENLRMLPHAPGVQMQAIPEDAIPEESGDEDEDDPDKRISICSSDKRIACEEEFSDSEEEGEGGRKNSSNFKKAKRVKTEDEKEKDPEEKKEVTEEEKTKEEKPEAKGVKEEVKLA
Setting [27] is: HDAC1, 37° C. 30 minutes, read-out: IC50 HDAC1.
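For IC50 HDAC1 in this document: fluorogenic acetyl-lysine substrate (20 µM) deacetylated by HDAC1, then developer releases fluorophore read at 360 nm excitation and 460 nm emission, inhibitor incubated 30 min at 37 °C.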
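For IC50 HDAC1, C (six-membered ring with substituents) in this document: fluorogenic acetyl-lysine substrate (20 µM) deacetylated by HDAC1, then developer releases fluorophore read at 360 nm excitation and 460 nm emission, inhibitor incubated 30 min at 37 °C.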
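For IC50 HDAC7 in this document: fluorogenic deacetylation assay using acetyl-lysine substrate at 20 µM, enzyme and compound incubated 30 min at 37 °C, then developer added, fluorescence read at 360/460 nm.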

As for `C/C=C1\NC(=O)c2nc(ccc2SC)CNC(=O)C[C@@H](/C=C/CCSC(C)=O)OC(=O)[C@H](C)NC1=O` [Compound 213], the GI50 stood at 54 nM in experiment [1]; 35 nM in experiment [2]; 37 nM in experiment [3]; 20 nM in [4] (HT1080 cells); 50 nM in [5] (Hela cells); 80 nM in [6] (PANC-1 cells). The 50% growth inhibitory concentration (GI50) in [7] is 58 nM; in [8] (MCF-7 cells), 90 nM; in [9], 28 nM; in experiment [10] (MOLT-4 cells) it was 40 nM; in [11] it was 53 nM; in experiment [12] (U937 cells), 70 nM. The GI50 in experiment [13] turned out to be 78 nM; in experiment [14] it was 42 nM; in experiment [15] (DU145 cells), 20 nM; in [16], 76 nM; in experiment [17] (A549 cells) it was 70 nM; in experiment [18] (lncap cells) it was 70 nM. Also, the figures for the GI50 in experiment [19] and in experiment [20] (BGC-823 cells) were 28 nM and 30 nM, respectively. The IC50 in experiment [21] amounted to 34 nM; in [22], 87 nM. Besides, the “IC50 HDAC7” value in experiment [23] is given as “no activity”.
Take `C/C=C1\NC(=O)c2ccc(F)c(n2)CNC(=O)C[C@@H](/C=C/CCSC=O)OC(=O)[C@H](C(C)C)NC1=O` [Example 53]: the half-maximal inhibitory concentration (IC50) is 43 nM in experiment [21]; 105 nM in experiment [22]; 26 nM in [24]; 29 nM in experiment [25]; 84 nM in experiment [26] (setting [27]). In [23], the “IC50 HDAC7” value is given as “no activity”.
With `C/C=C1\NC(=O)c2cc(F)cc(n2)CNC(=O)C[C@@H](/C=C/CCSC(C)=O)OC(=O)[C@H](C(C)C)NC1=O` [Compound 49], the GI50 in experiment [4] amounted to 70 nM; in experiment [5] it was 80 nM; in experiment [6], 70 nM; in experiment [8], 50 nM; in [10], 20 nM; in experiment [12] it was 30 nM. Moreover, the GI50 worked out at 10 nM in experiment [15], 60 nM in [17], 20 nM in experiment [18] and 70 nM in experiment [20]. Also, the IC50 in experiment [21] was determined as 46 nM; in [22], 73 nM; in experiment [24], 38 nM; in experiment [25], 48 nM; in experiment [26] (setting [27]) it was 16 nM; in [26] (Table 3, column C, read-out: IC50 HDAC1, C (six-membered ring with substituents)), 16 nM.

By GI50 is commonly meant the concentration at which growth is held to half of that of the control. In general, IC50 refers to the concentration that inhibits the measured activity by half.

The values are drawn from patent US10065990B2, “Cyclic peptide compound, and preparation method, pharmaceutical composition and use thereof” (HANGZHOU GUANYU BIO-MEDICAL CO., LTD, priority 2013, dated 2018).
